Data taken from PMC10728895, “Stapled Phd Peptides Inhibit Doc Toxin Induced Growth Arrest in Salmonella” (ACS Chemical Biology, 2023).
Positions of bridges follow the written chain, without caps; N, C: chain ends. Non-standard residues stand in square brackets, D forms with d. Residues, ends and D or L forms follow the SMILES beside them. S5 = C=CCCC[C@](C)(N)C(=O)O; Nle = CCCC[C@H](N)C(=O)O

Test system: DocSTm toxin
Details: DocSTm 5 μM, peptide 50 μM, SYPRO Orange 3×, 20 mM K2HPO4, 50 mM (NH4)2SO4, pH 8.0; average Tm with peptide minus average Tm of free DocSTm; mean ± SD
Method: The thermal shift assay was performed using a Mx3005P qPCR System (Agilent) collecting fluorescence data with a temperature ramp of 25 to 95 °C. Samples were prepared in a buffer containing 20 mM K2HPO4 and 50 mM (NH4)2SO4 at pH 8.0, with a final concentration of recombinant Doc protein at 5 μM and Phd peptides at 50 μM. SYPRO Orange dye (Sigma-Aldrich, 5000X stock in DMSO) was used to monitor protein denaturation in a final concentration of 3×. The final sample volume was 20 μL. Each condition was prepared in triplicate in each independent experiment. The melting curves were plotted using GraphPad Prism 9 (GraphPad Software, USA), and the melting temperatures were obtained by fitting the sigmoidal section of the curves to a Boltzmann sigmoid function. For the calculation of thermal shifts ΔTm, the average melting temperature of free DocSTm toxin as determined in the respective peptide measurement cycles was subtracted from the average melting temperature of DocSTm in the presence of the peptide (Table S3).

SMILES | ΔTm (thermal shift) of DocSTm in the presence of peptide
CCCC[C@H](NC(=O)[C@H](Cc1c[nH]c2ccccc12)NC(C)=O)C(=O)N[C@@H](CCCNC(=N)N)C(=O)N[C@@H](CCCNC(=N)N)C(=O)N[C@@H](CCC(=O)O)C(=O)N[C@@H](Cc1ccccc1)C(=O)N[C@@H](CCCNC(=N)N)C(=O)N[C@@H](CCCNC(=N)N)C(=O)N[C@H](C(=O)N[C@@H](CCCC)C(=O)N[C@@H](CCCNC(=N)N)C(=O)N[C@H](C(=O)N[C@@H](Cc1c[nH]cn1)C(=O)NCC(=O)N[C@@H](CC(N)=O)C(=O)N[C@@H](CCC(=O)O)C(=O)N[C@@H](CC(C)C)C(=O)N[C@@H](CCCNC(=N)N)C(=O)N[C@@H](CCC(=O)O)C(=O)N[C@@H](CC(C)C)C(=O)N[C@@H](C)C(=O)N[C@@H](CC(=O)O)C(=O)N[C@@H](CCCCN)C(=O)O)C(C)C)[C@@H](C)CC [Peptide 14] (Ac-W[Nle]RREFRRI[Nle]RVHGNELRELADK-OH) | 11–13 °C

Same assay, conditions: DocSTm 5 μM, peptide 50 μM, pH 8.0; average ± SD, replicates 3-48 (Table S3)

SMILES | Average Tm of DocSTm in the presence of peptide [°C]
CCCC[C@H](NC(=O)[C@H](Cc1c[nH]c2ccccc12)NC(C)=O)C(=O)N[C@@H](CCCNC(=N)N)C(=O)N[C@@H](CC(N)=O)C(=O)N[C@@H](CCC(=O)O)C(=O)N[C@@H](Cc1ccccc1)C(=O)N[C@@H](C)C(=O)N[C@@H](C)C(=O)N[C@H](C(=O)N[C@@H](CCCC)C(=O)N[C@@H](CCCNC(=N)N)C(=O)N[C@H](C(=O)N[C@@H](Cc1c[nH]cn1)C(=O)NCC(=O)N[C@@H](CC(N)=O)C(=O)N[C@@H](CCC(N)=O)C(=O)N[C@@H](CC(C)C)C(=O)N[C@@H](CCCNC(=N)N)C(=O)N[C@@H](CCC(=O)O)C(=O)N[C@@H](CC(C)C)C(=O)N[C@@H](C)C(=O)N[C@@H](CC(N)=O)C(=O)N[C@@H](CCCCN)C(=O)O)C(C)C)[C@@H](C)CC [Peptide 26] (Ac-W[Nle]RNEFAAI[Nle]RVHGNQLRELANK-OH) | 62.9 ± 0.3
CCCC[C@H](NC(=O)[C@H](Cc1c[nH]c2ccccc12)NC(C)=O)C(=O)N[C@@H](CC(=O)O)C(=O)N[C@@H](CC(=O)O)C(=O)N[C@@H](CCC(=O)O)C(=O)N[C@@H](Cc1ccccc1)C(=O)N[C@@H](CCCNC(=N)N)C(=O)N[C@@H](C)C(=O)N[C@H](C(=O)N[C@@H](CCCC)C(=O)N[C@@H](C)C(=O)N[C@H](C(=O)N[C@@H](Cc1c[nH]cn1)C(=O)NCC(=O)N[C@@H](CC(N)=O)C(=O)N[C@@H](CCC(=O)O)C(=O)N[C@@H](CC(C)C)C(=O)N[C@@H](CCCNC(=N)N)C(=O)N[C@@H](CCC(=O)O)C(=O)N[C@@H](CC(C)C)C(=O)N[C@@H](C)C(=O)N[C@@H](CC(=O)O)C(=O)N[C@@H](CCCCN)C(=O)O)C(C)C)[C@@H](C)CC [Peptide 5] (Ac-W[Nle]DDEFRAI[Nle]AVHGNELRELADK-OH) | 69.7 ± 0.7
CCCC[C@H](NC(=O)[C@H](Cc1c[nH]c2ccccc12)NC(C)=O)C(=O)N[C@@H](CC(N)=O)C(=O)N[C@@]1(C)CCCC=CCCC[C@@](C)(C(=O)N[C@H](C(=O)N[C@@H](CCCC)C(=O)N[C@@H](C)C(=O)N[C@H](C(=O)N[C@@H](Cc2c[nH]cn2)C(=O)NCC(=O)N[C@@H](CCCNC(=N)N)C(=O)N[C@@H](CCC(N)=O)C(=O)N[C@@H](CC(C)C)C(=O)N[C@@H](CCCNC(=N)N)C(=O)N[C@@H](CCCNC(=N)N)C(=O)N[C@@H](CC(C)C)C(=O)N[C@@H](C)C(=O)N[C@@H](CCCNC(=N)N)C(=O)N[C@@H](CCCCN)C(=O)O)C(C)C)[C@@H](C)CC)NC(=O)[C@H](C)NC(=O)[C@H](Cc2ccccc2)NC(=O)[C@H](CCC(=O)O)NC1=O [Peptide 35] (Ac-W[Nle]N[S5]EFA[S5]I[Nle]AVHGRQLRRLARK-OH; staple 4-8) | 59.9 ± 0.4
CCCC[C@H](NC(=O)[C@H](Cc1c[nH]c2ccccc12)NC(C)=O)C(=O)N[C@@H](CC(=O)O)C(=O)N[C@@H](CC(=O)O)C(=O)N[C@@H](CCC(=O)O)C(=O)N[C@@H](Cc1ccccc1)C(=O)N[C@@H](C)C(=O)N[C@@H](C)C(=O)N[C@H](C(=O)N[C@@H](CCCC)C(=O)N[C@@H](C)C(=O)N[C@H](C(=O)N[C@@H](Cc1c[nH]cn1)C(=O)NCC(=O)N[C@@H](CC(N)=O)C(=O)N[C@@H](CCC(=O)O)C(=O)N[C@@H](CC(C)C)C(=O)N[C@@H](CCCNC(=N)N)C(=O)N[C@@H](CCCNC(=N)N)C(=O)N[C@@H](CC(C)C)C(=O)N[C@@H](C)C(=O)N[C@@H](CC(=O)O)C(=O)N[C@@H](CCCCN)C(=O)O)C(C)C)[C@@H](C)CC [Peptide 11] (Ac-W[Nle]DDEFAAI[Nle]AVHGNELRRLADK-OH) | 73.5 ± 1.3
CCCC[C@H](NC(=O)[C@H](Cc1c[nH]c2ccccc12)NC(C)=O)C(=O)N[C@@H](CC(=O)O)C(=O)N[C@@H](CC(=O)O)C(=O)N[C@@H](CCC(=O)O)C(=O)N[C@@H](Cc1ccccc1)C(=O)N[C@@H](C)C(=O)N[C@@H](C)C(=O)N[C@H](C(=O)N[C@@H](CCCC)C(=O)N[C@@H](CCCNC(=N)N)C(=O)N[C@H](C(=O)N[C@@H](Cc1c[nH]cn1)C(=O)NCC(=O)N[C@@H](CC(N)=O)C(=O)N[C@@H](CCC(=O)O)C(=O)N[C@@H](CC(C)C)C(=O)N[C@@H](CCCNC(=N)N)C(=O)N[C@@H](CCC(=O)O)C(=O)N[C@@H](CC(C)C)C(=O)N[C@@H](C)C(=O)N[C@@H](CC(=O)O)C(=O)N[C@@H](CCCCN)C(=O)O)C(C)C)[C@@H](C)CC [Peptide 7] (Ac-W[Nle]DDEFAAI[Nle]RVHGNELRELADK-OH) | 70.2 ± 0.3
CCCC[C@H](NC(=O)[C@H](Cc1c[nH]c2ccccc12)NC(C)=O)C(=O)N[C@@H](CCCNC(=N)N)C(=O)N[C@@H](CCCNC(=N)N)C(=O)N[C@@H](CCC(=O)O)C(=O)N[C@@H](Cc1ccccc1)C(=O)N[C@@H](CCCNC(=N)N)C(=O)N[C@@H](CCCNC(=N)N)C(=O)N[C@H](C(=O)N[C@@H](CCCC)C(=O)N[C@@H](CCCNC(=N)N)C(=O)N[C@H](C(=O)N[C@@H](Cc1c[nH]cn1)C(=O)NCC(=O)N[C@@H](CC(N)=O)C(=O)N[C@@H](CCC(=O)O)C(=O)N[C@@H](CC(C)C)C(=O)N[C@@H](CCCNC(=N)N)C(=O)N[C@@H](CCC(=O)O)C(=O)N[C@@H](CC(C)C)C(=O)N[C@@H](C)C(=O)N[C@@H](CC(=O)O)C(=O)N[C@@H](CCCCN)C(=O)O)C(C)C)[C@@H](C)CC [Peptide 14] (Ac-W[Nle]RREFRRI[Nle]RVHGNELRELADK-OH) | 56.0 ± 0.1
CCCC[C@H](NC(=O)[C@H](Cc1c[nH]c2ccccc12)NC(C)=O)C(=O)N[C@@]1(C)CCCC=CCCC[C@@](C)(C(=O)N[C@@H](C)C(=O)N[C@H](C(=O)N[C@@H](CCCC)C(=O)N[C@@H](C)C(=O)N[C@H](C(=O)N[C@@H](Cc2c[nH]cn2)C(=O)NCC(=O)N[C@@H](CCCNC(=N)N)C(=O)N[C@@H](CCC(N)=O)C(=O)N[C@@H](CC(C)C)C(=O)N[C@@H](CCCNC(=N)N)C(=O)N[C@@H](CCCNC(=N)N)C(=O)N[C@@H](CC(C)C)C(=O)N[C@@H](C)C(=O)N[C@@H](CCCNC(=N)N)C(=O)N[C@@H](CCCCN)C(=O)O)C(C)C)[C@@H](C)CC)NC(=O)[C@H](Cc2ccccc2)NC(=O)[C@H](CCC(=O)O)NC(=O)[C@H](CC(N)=O)NC1=O [Peptide 34] (Ac-W[Nle][S5]NEF[S5]AI[Nle]AVHGRQLRRLARK-OH; staple 3-7) | 58.9 ± 1.1
CCCC[C@H](NC(=O)[C@H](Cc1c[nH]c2ccccc12)NC(C)=O)C(=O)N[C@@H](CCCNC(=N)N)C(=O)N[C@@H](CC(=O)O)C(=O)N[C@@H](CCC(=O)O)C(=O)N[C@@H](Cc1ccccc1)C(=O)N[C@@H](C)C(=O)N[C@@H](C)C(=O)N[C@H](C(=O)N[C@@H](CCCC)C(=O)N[C@@H](C)C(=O)N[C@H](C(=O)N[C@@H](Cc1c[nH]cn1)C(=O)NCC(=O)N[C@@H](CC(N)=O)C(=O)N[C@@H](CCC(=O)O)C(=O)N[C@@H](CC(C)C)C(=O)N[C@@H](CCCNC(=N)N)C(=O)N[C@@H](CCC(=O)O)C(=O)N[C@@H](CC(C)C)C(=O)N[C@@H](C)C(=O)N[C@@H](CC(=O)O)C(=O)N[C@@H](CCCCN)C(=O)O)C(C)C)[C@@H](C)CC [Peptide 2] (Ac-W[Nle]RDEFAAI[Nle]AVHGNELRELADK-OH) | 66.4 ± 0.2
CCCC[C@H](NC(=O)[C@H](Cc1c[nH]c2ccccc12)NC(C)=O)C(=O)N[C@@H](CC(=O)O)C(=O)N[C@@H](CC(=O)O)C(=O)N[C@@H](CCC(=O)O)C(=O)N[C@@H](Cc1ccccc1)C(=O)N[C@@H](C)C(=O)N[C@@H](C)C(=O)N[C@H](C(=O)N[C@@H](CCCC)C(=O)N[C@@H](C)C(=O)N[C@H](C(=O)N[C@@H](Cc1c[nH]cn1)C(=O)NCC(=O)N[C@@H](CC(N)=O)C(=O)N[C@@H](CCC(=O)O)C(=O)N[C@@H](CC(C)C)C(=O)N[C@@H](CCCNC(=N)N)C(=O)N[C@@H](CCC(=O)O)C(=O)N[C@@H](CC(C)C)C(=O)N[C@@H](C)C(=O)N[C@@H](CCCNC(=N)N)C(=O)N[C@@H](CCCCN)C(=O)O)C(C)C)[C@@H](C)CC [Peptide 13] (Ac-W[Nle]DDEFAAI[Nle]AVHGNELRELARK-OH) | 72.7 ± 0.4
CCCC[C@H](NC(=O)[C@H](Cc1c[nH]c2ccccc12)NC(C)=O)C(=O)N[C@@H](CCCNC(=N)N)C(=O)N[C@@H](CC(N)=O)C(=O)N[C@@H](CCC(N)=O)C(=O)N[C@@H](Cc1ccccc1)C(=O)N[C@@H](C)C(=O)N[C@@H](C)C(=O)N[C@H](C(=O)N[C@@H](CCCC)C(=O)N[C@@H](CCCNC(=N)N)C(=O)N[C@H](C(=O)N[C@@H](Cc1c[nH]cn1)C(=O)NCC(=O)N[C@@H](CC(N)=O)C(=O)N[C@@H](CCC(N)=O)C(=O)N[C@@H](CC(C)C)C(=O)N[C@@H](CCCNC(=N)N)C(=O)N[C@@H](CCC(=O)O)C(=O)N[C@@H](CC(C)C)C(=O)N[C@@H](C)C(=O)N[C@@H](CC(N)=O)C(=O)N[C@@H](CCCCN)C(=O)O)C(C)C)[C@@H](C)CC [Peptide 22] (Ac-W[Nle]RNQFAAI[Nle]RVHGNQLRELANK-OH) | 54.7 ± 3.1
CCCC[C@H](NC(=O)[C@H](Cc1c[nH]c2ccccc12)NC(C)=O)C(=O)N[C@@H](CC(=O)O)C(=O)N[C@@H](CCCNC(=N)N)C(=O)N[C@@H](CCC(=O)O)C(=O)N[C@@H](Cc1ccccc1)C(=O)N[C@@H](C)C(=O)N[C@@H](C)C(=O)N[C@H](C(=O)N[C@@H](CCCC)C(=O)N[C@@H](C)C(=O)N[C@H](C(=O)N[C@@H](Cc1c[nH]cn1)C(=O)NCC(=O)N[C@@H](CC(N)=O)C(=O)N[C@@H](CCC(=O)O)C(=O)N[C@@H](CC(C)C)C(=O)N[C@@H](CCCNC(=N)N)C(=O)N[C@@H](CCC(=O)O)C(=O)N[C@@H](CC(C)C)C(=O)N[C@@H](C)C(=O)N[C@@H](CC(=O)O)C(=O)N[C@@H](CCCCN)C(=O)O)C(C)C)[C@@H](C)CC [Peptide 3] (Ac-W[Nle]DREFAAI[Nle]AVHGNELRELADK-OH) | 67.4 ± 0.2
